Blank lines part the entries; values can stand above or below the compound they belong to.
Columns and labels:
[1] = target: T1, Serine/threonine-protein kinase TAO3 (Homo sapiens) (UniProt Q9H2K8); experiment: Selectivity interaction (KinomeScan (DiscoverX)) EUB0000607a TAOK3; conditions: at 10 µM
T1 sequence (whole entry): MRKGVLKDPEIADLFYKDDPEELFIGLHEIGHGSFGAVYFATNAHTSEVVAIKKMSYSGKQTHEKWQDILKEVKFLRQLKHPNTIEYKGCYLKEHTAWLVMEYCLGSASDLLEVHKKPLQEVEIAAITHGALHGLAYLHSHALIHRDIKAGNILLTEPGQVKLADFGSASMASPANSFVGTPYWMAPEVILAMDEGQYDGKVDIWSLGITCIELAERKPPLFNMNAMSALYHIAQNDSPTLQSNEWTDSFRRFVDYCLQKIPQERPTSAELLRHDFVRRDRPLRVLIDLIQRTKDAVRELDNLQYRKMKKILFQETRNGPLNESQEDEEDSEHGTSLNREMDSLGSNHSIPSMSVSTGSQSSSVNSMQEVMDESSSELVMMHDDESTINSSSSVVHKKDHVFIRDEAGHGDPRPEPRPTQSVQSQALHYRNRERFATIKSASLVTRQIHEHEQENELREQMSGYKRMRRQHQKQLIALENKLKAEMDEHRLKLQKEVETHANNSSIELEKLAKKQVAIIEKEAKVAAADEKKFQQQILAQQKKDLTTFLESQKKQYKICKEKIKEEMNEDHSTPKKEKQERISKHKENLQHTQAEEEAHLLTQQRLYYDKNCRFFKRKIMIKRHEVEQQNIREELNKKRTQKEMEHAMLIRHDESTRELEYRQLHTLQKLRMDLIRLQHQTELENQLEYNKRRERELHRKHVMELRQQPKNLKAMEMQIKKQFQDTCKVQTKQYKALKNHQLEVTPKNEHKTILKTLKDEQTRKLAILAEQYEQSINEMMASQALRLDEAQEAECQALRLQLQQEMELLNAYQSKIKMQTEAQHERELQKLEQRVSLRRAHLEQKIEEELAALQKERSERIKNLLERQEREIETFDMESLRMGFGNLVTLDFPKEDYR

[2] = target: MAP/microtubule affinity-regulating kinase 3 (Homo sapiens) (UniProt P27448); experiment: Selectivity interaction (ActivX KiNativ screen (kinase selectivity in THP-1 cell lysates)) EUB0000639a MARK3; assay type: subcellular; conditions: lysate, at 1 µM
[3] = target: Ribosomal protein S6 kinase beta-1 (Homo sapiens, UniProt P23443); experiment: Selectivity interaction (Kinase panel (Invitrogen)) EUB0000639a RPS6KB1; conditions: at 200 nM
[4] = target: T2, Mitogen-activated protein kinase kinase kinase 2 (Homo sapiens) (UniProt Q9Y2U5); experiment: Selectivity interaction (ActivX KiNativ screen (kinase selectivity in THP-1 cell lysates)) EUB0000639a MAP3K2; assay type: subcellular; conditions: lysate, at 0.01 µM
T2 sequence (whole entry): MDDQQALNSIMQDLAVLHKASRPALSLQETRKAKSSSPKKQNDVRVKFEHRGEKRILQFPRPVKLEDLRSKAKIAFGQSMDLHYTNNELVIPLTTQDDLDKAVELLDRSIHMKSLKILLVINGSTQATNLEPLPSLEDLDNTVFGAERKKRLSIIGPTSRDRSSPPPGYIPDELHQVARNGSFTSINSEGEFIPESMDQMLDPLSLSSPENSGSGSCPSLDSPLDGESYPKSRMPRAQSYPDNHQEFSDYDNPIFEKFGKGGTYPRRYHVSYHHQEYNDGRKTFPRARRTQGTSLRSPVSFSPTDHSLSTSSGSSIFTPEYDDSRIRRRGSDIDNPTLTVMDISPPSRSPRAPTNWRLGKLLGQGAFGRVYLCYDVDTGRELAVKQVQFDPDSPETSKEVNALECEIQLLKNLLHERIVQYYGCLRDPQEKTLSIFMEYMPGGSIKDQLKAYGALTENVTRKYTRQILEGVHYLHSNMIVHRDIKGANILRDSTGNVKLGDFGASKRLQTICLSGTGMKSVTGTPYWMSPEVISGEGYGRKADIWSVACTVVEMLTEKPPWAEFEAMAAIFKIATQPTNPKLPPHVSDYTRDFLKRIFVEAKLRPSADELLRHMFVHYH

[5] = target: T3, Protein arginine N-methyltransferase 7 (Homo sapiens, UniProt Q9NVM4); experiment: Selectivity interaction (Scintillation proximity assays) EUB0000255b PRMT7
[6] = target: T3, Protein arginine N-methyltransferase 7; experiment: Selectivity interaction (Scintillation proximity assays) EUB0000230b PRMT7
[7] = target: Protein-tyrosine kinase 2-beta (Homo sapiens) (UniProt Q14289); experiment: Selectivity interaction (KinomeScan (DiscoverX)) EUB0000092b PTK2B; conditions: at 10 µM
[8] = target: T4, Tyrosine-protein kinase Mer (Homo sapiens) (UniProt Q12866); experiment: Selectivity interaction (KinomeScan (DiscoverX)) EUB0000618a MERTK; conditions: at 10 µM
T4 sequence (whole entry): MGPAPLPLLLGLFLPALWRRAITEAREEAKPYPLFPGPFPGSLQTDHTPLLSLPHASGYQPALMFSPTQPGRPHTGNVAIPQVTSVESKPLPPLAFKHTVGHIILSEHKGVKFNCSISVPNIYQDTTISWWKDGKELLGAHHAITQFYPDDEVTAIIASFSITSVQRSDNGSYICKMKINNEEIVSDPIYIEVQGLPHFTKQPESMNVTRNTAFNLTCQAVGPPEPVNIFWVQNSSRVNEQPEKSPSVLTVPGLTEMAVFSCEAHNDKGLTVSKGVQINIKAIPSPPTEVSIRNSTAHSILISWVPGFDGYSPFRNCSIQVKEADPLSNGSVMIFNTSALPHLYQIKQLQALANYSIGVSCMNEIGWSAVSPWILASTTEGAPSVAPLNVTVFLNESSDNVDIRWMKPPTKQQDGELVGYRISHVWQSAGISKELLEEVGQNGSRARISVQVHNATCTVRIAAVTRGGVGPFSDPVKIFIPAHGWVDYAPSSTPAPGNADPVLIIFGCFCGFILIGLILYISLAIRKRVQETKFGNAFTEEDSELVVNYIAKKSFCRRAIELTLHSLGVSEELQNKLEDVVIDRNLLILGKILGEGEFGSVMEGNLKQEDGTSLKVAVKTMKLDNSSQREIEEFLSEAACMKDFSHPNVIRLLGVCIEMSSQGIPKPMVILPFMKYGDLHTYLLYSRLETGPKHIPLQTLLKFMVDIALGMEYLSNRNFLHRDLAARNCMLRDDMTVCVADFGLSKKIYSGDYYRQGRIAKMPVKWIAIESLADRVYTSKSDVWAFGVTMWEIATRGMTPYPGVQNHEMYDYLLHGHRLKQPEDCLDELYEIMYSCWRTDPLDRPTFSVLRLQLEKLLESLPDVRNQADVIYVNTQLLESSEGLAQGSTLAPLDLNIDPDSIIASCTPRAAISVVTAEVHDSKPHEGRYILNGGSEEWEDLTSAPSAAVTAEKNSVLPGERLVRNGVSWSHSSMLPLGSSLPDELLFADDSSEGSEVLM

[9] = target: Death-associated protein kinase 2 (Homo sapiens) (UniProt Q9UIK4); experiment: Selectivity interaction (KinomeScan (DiscoverX)) EUB0001619a DAPK2; conditions: at 1 µM
Death-associated protein kinase 2 (Homo sapiens), sequence (Q9UIK4 whole entry, looked up): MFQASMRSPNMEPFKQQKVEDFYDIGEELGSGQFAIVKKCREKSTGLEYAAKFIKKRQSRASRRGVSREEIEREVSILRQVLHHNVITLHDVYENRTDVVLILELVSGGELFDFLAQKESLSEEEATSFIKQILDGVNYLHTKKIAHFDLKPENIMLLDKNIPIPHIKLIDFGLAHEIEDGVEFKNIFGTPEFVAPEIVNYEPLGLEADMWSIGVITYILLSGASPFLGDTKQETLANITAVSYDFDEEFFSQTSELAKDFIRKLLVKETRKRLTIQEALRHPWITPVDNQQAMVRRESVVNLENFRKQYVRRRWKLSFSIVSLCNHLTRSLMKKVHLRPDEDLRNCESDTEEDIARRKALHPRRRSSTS

T3 sequence (Q9NVM4 whole entry): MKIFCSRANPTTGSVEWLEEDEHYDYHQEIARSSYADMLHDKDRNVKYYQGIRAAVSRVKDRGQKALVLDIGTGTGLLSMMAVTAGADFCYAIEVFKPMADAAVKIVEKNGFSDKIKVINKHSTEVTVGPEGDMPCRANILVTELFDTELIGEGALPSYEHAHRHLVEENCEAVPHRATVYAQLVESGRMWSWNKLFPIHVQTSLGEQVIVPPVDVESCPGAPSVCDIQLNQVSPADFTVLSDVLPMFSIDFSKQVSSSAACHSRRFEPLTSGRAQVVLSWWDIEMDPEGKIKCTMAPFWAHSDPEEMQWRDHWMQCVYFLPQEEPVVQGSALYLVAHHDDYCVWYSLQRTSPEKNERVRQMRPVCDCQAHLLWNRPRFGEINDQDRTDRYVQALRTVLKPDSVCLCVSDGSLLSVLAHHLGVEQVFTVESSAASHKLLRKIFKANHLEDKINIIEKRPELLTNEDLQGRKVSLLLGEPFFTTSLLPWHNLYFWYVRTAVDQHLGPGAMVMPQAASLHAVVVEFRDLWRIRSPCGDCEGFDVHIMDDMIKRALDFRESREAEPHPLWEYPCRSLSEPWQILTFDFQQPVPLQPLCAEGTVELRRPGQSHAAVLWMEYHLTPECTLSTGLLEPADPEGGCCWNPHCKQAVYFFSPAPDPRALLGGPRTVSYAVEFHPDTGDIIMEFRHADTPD
Ribosomal protein S6 kinase beta-1, sequence (P23443 whole entry, looked up): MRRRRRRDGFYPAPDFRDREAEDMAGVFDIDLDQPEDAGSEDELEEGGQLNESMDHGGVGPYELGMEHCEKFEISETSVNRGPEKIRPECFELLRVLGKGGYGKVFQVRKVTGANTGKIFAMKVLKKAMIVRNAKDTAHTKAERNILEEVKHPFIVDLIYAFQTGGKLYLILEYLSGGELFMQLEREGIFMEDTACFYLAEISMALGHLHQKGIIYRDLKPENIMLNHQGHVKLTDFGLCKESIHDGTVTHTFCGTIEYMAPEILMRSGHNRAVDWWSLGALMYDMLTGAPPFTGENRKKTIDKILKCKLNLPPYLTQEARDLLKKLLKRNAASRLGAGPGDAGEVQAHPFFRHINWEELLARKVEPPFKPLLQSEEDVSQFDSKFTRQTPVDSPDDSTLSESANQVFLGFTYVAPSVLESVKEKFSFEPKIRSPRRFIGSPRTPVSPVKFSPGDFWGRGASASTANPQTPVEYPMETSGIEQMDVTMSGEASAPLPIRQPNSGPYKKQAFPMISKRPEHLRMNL
Protein-tyrosine kinase 2-beta (Homo sapiens), sequence (Q14289 whole entry, looked up): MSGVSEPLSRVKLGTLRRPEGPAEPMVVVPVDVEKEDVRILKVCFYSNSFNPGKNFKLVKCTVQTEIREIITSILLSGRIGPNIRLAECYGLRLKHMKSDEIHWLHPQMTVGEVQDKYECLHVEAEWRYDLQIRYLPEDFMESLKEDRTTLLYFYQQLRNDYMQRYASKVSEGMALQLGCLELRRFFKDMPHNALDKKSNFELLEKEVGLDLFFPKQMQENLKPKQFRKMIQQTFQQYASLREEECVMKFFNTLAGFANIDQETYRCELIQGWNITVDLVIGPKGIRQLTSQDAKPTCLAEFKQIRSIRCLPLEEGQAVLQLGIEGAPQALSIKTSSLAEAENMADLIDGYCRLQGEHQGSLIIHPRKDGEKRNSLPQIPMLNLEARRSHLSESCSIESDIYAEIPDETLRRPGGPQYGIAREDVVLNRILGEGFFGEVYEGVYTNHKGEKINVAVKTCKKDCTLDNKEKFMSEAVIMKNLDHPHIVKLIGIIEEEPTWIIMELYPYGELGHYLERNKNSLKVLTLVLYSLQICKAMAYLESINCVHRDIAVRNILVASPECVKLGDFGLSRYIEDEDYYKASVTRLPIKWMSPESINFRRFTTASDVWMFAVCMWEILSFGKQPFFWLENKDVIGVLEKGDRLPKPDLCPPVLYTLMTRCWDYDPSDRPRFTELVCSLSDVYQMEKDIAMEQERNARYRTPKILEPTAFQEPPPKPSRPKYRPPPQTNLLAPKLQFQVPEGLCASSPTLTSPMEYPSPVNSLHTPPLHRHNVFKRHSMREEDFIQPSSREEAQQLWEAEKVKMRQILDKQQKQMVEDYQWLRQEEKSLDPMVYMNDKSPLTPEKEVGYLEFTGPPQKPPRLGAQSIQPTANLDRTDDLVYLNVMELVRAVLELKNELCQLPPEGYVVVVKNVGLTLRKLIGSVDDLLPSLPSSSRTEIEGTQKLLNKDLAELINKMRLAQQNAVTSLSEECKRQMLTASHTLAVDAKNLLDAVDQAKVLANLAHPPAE
MAP/microtubule affinity-regulating kinase 3 (Homo sapiens), sequence (P27448 whole entry, looked up): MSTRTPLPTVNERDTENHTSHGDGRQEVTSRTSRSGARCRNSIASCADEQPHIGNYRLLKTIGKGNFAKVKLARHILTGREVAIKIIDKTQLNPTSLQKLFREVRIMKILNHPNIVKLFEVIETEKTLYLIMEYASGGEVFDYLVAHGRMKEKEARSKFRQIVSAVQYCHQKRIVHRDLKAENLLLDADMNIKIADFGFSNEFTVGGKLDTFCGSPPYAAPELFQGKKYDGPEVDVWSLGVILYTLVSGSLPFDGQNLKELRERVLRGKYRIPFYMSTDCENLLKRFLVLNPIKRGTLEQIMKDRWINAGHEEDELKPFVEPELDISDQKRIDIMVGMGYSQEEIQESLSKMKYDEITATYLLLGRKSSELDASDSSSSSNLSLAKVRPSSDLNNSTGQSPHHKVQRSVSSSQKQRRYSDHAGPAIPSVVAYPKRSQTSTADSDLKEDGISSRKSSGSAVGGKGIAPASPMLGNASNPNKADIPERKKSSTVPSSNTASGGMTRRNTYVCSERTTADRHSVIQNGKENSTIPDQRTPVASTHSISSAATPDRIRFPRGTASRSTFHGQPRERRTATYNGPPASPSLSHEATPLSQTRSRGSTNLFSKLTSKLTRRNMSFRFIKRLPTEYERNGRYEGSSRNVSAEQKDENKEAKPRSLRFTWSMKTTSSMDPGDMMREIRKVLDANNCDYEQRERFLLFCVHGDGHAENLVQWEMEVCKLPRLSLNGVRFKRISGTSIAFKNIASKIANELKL

Structure (SMILES): CNC(=O)Nc1ccc(-c2nc(N3CC4CCC(C3)O4)c3cnn(C4CCC5(CC4)OCCO5)c3n2)cc1
% of control [1]: 90%

% of inhibition [2]: 21.6%
% of inhibition [3]: 17.4%
% of inhibition [4]: 8.7%
Structure (SMILES): CC[C@@H]1[C@H](F)C(=O)N[C@@H]1COc1nccc2cc(C(N)=O)c(OC)cc12 [ZIMLOVISERTIB]

Structure (SMILES): COCCN1CCC(c2cc(CN(C)C(=O)c3cccc(Oc4ccccc4)c3)ccn2)CC1
IC50 [5]: > 10 µM

IC50 [6]: > 10 µM
Structure (SMILES): CNCCN1CCC(c2cc(CN(C)C(=O)c3cccc(Oc4ccccc4)c3)ccn2)CC1

Structure (SMILES): CCC(=O)N1CCN(c2ccc(-n3c(=O)ccc4cnc5ccc(-c6cnc7ccccc7c6)cc5c43)cc2C(F)(F)F)CC1
% of control [7]: 100%

Structure (SMILES): O[C@H]1CC[C@H](Nc2ncc3nc(Nc4c(F)cc(F)cc4F)n([C@H]4CCOC4)c3n2)CC1
% of control [8]: 17%

Structure (SMILES): N#Cc1cccc(-c2c[nH]c3ncnc(N4CCOCC4)c23)c1
% of control [9]: 100%
